From the supplement of paper PMC10307832

Key:
Test in all cases: relative viability (nuclei count vs DMSO), 5 days (fraction); higher = more cells survive
[1] = compound: CC1=NN=C(O1)C2=NN=C(C=C2)N3CCC(CC3)OC4=C(C=CC(=C4)F)Cl + Cc1nc(Nc2ncc(C(=O)Nc3c(C)cccc3Cl)s2)cc(N2CCN(CCO)CC2)n1 [Dasatinib] (partner 0.075 µM)
Method in brief: (§1)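 After 5 days of treatment, lung cancer cells in 1536-well plates were fixed and stained in a single step (final 0.05% Triton X-100, 1% formaldehyde, 1 ug/ml Hoechst) and their nuclei counted on 4× images. Treatment had been applied by pin tool the day after seeding as one drug alone or as a fixed anchor-drug dose with five library-drug doses (not always all listed) in √10 steps. Relative viability is the nuclei count of treated wells divided by that of vehicle wells, and values are medians of duplicate plates.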

[2] = compound: CC1=NN=C(O1)C2=NN=C(C=C2)N3CCC(CC3)OC4=C(C=CC(=C4)F)Cl + CCNC(=O)c1noc(-c2cc(C(C)C)c(O)cc2O)c1-c1ccc(CN2CCOCC2)cc1 [Luminespib] (partner 0.01 µM)
Method in brief: as §1

Tosedostat + Decitabine = compound: CC(C)C[C@@H](C(=O)N[C@H](C(=O)OC1CCCC1)c1ccccc1)[C@H](O)C(=O)NO [Tosedostat] + Nc1ncn([C@H]2C[C@H](O)[C@@H](CO)O2)c(=O)n1 [Decitabine] (partner 2 µM)
Method in brief: as §1

Tosedostat + Bortezomib = compound: CC(C)C[C@@H](C(=O)N[C@H](C(=O)OC1CCCC1)c1ccccc1)[C@H](O)C(=O)NO [Tosedostat] + CC(C)C[C@H](NC(=O)[C@H](Cc1ccccc1)NC(=O)c1cnccn1)B(O)O [Bortezomib] (partner 0.002 µM)
Method in brief: as §1

Cell Line | relative viability ([1]; first compound 0.253 µM) | relative viability ([1]; first compound 0.8 µM) | relative viability ([1]; first compound 2.53 µM) | relative viability ([1]; first compound 8 µM) | relative viability ([2]; first compound 0.253 µM) | relative viability ([2]; first compound 0.8 µM) | relative viability ([2]; first compound 2.53 µM) | relative viability ([2]; first compound 8 µM) | relative viability (Tosedostat + Decitabine; first compound 0.02 µM) | relative viability (Tosedostat + Decitabine; first compound 0.06325 µM) | relative viability (Tosedostat + Decitabine; first compound 0.2 µM) | relative viability (Tosedostat + Decitabine; first compound 0.6325 µM) | relative viability (Tosedostat + Decitabine; first compound 2 µM) | relative viability (Tosedostat + Bortezomib; first compound 0.02 µM) | relative viability (Tosedostat + Bortezomib; first compound 0.06325 µM) | relative viability (Tosedostat + Bortezomib; first compound 0.2 µM) | relative viability (Tosedostat + Bortezomib; first compound 0.6325 µM) | relative viability (Tosedostat + Bortezomib; first compound 2 µM)
201T | 0.38 | 0.45 | 0.409 | 0.433 | 0.486 | 0.589 | 0.499 | 0.566 | 0.835 | 0.894 | 0.879 | 0.891 | 0.846 | 1.1 | 1.08 | 1.14 | 1.14 | 1.21
A549 |  |  |  |  |  |  |  |  | 0.264 | 0.337 | 0.24 | 0.193 | 0.292 |  |  |  |  | 
A-427 | 0.654 |  | 0.669 | 0.63 | 0.882 |  | 0.708 | 0.732 | 0.562 | 0.594 | 0.629 | 0.506 | 0.55 | 1.02 | 0.916 | 1.06 | 1.01 | 0.879
ABC-1 | 0.457 | 0.32 | 0.318 | 0.361 | 0.35 | 0.362 | 0.207 | 0.262 | 1.17 | 1.13 | 1.27 | 1.19 | 1.05 | 0.289 | 0.344 | 0.328 | 0.274 | 0.306
BEN | 0.375 | 0.508 | 0.321 | 0.24 | 0.47 | 0.459 | 0.312 | 0.18 | 0.79 | 0.761 | 0.676 | 0.734 | 0.665 | 0.973 | 1.08 | 0.827 | 0.908 | 0.728
CAL-12T | 0.315 | 0.34 | 0.374 | 0.228 | 0.362 | 0.342 | 0.501 | 0.415 |  |  |  |  |  | 0.987 | 0.897 | 0.966 | 0.85 | 0.549
COR-L23 | 0.438 | 0.375 | 0.39 | 0.343 | 0.587 | 0.647 | 0.458 | 0.474 | 0.465 | 0.411 | 0.393 | 0.405 | 0.37 | 1.22 | 0.918 | 0.914 | 0.969 | 1.1
COR-L 105 | 0.329 | 0.346 | 0.413 | 0.489 | 0.622 | 0.812 | 0.691 | 0.625 | 0.747 | 0.622 | 0.681 | 0.537 | 0.596 | 0.733 | 0.605 | 0.807 | 0.781 | 0.542
Calu-6 |  |  |  |  |  |  |  |  |  |  |  |  |  | 1.13 | 0.932 | 0.943 | 0.851 | 0.666
ChaGo-K-1 | 0.604 | 0.531 | 0.654 | 0.352 | 0.426 | 0.532 | 0.56 | 0.541 | 0.487 | 0.526 | 0.543 | 0.463 | 0.419 | 1.15 | 1.03 | 0.938 | 0.962 | 0.78
EBC-1 |  |  |  |  |  |  |  |  |  |  |  |  |  | 0.538 | 0.516 | 0.505 | 0.405 | 0.334
EKVX | 0.513 | 0.464 | 0.436 | 0.532 | 0.447 | 0.362 | 0.331 | 0.32 | 0.37 | 0.34 | 0.292 | 0.313 | 0.332 | 0.974 | 0.995 | 1.03 | 0.946 | 0.823
EMC-BAC-2 | 0.319 | 0.324 | 0.362 | 0.422 | 0.987 | 0.977 | 1.03 | 0.917 | 1.04 | 0.964 | 0.971 | 0.877 | 0.865 | 1.13 | 1 | 1.07 | 0.944 | 0.985
EPLC-272H | 0.35 | 0.277 | 0.404 | 0.302 | 0.226 | 0.167 | 0.313 | 0.267 | 0.364 | 0.37 | 0.363 | 0.328 | 0.254 | 1.14 | 0.826 | 0.738 | 0.67 | 0.574
H3255 | 0.316 | 0.434 | 0.404 | 0.338 | 0.82 | 0.737 | 0.727 | 0.66 | 0.595 | 0.559 | 0.553 | 0.531 | 0.645 | 0.883 | 0.927 | 0.86 | 0.621 | 0.648
HARA | 0.271 | 0.248 | 0.247 | 0.235 | 0.234 | 0.204 | 0.202 | 0.184 | 0.583 | 0.583 | 0.427 | 0.442 | 0.457 | 1.16 | 1.08 | 1.1 | 1.1 | 0.942
HCC-15 | 0.497 | 0.453 | 0.499 | 0.472 | 0.342 | 0.303 | 0.294 | 0.286 | 0.675 | 0.649 | 0.591 | 0.446 | 0.433 | 1.19 | 0.98 | 0.956 | 0.869 | 0.998
